From paper PMC7083565, “In vitro metabolism, reaction phenotyping, enzyme kinetics, CYP inhibition and induction potential of ataluren” (Pharmacology Research & Perspectives, 2020)
Where two headings read alike, the source gives them in different places.

Assays:
Format in all cases: in vitro ADME
[1] = Glucuronidation in pooled human kidney microsomes; conditions: kidney microsomes 1 mg protein/mL, 10 μmol/L, 60 minutes, n = 1
Method: Ataluren at 10 μmol/L, was incubated (n = 1) with pooled human intestinal, lung, and kidney microsomes (1 mg protein/mL, preactivated with alamethicin) to evaluate if ataluren‐O‐1β‐acyl glucuronide will be formed in these extrahepatic tissues. Incubation mixtures and procedures were essentially the same as the above. The supernatant fractions were analyzed by LC‐MS/MS to quantify the formation of ataluren‐O‐1β‐acyl glucuronide and the loss of ataluren. Detailed LC‐MS/MS conditions are summarized in LC‐MS/MS Analysis section. […] The ataluren acyl glucuronide formation rate after 60 minutes incubation was calculated using the amount of metabolite formed (pmol) divided by the protein amount in the incubation sample ([…]) and the incubation time (60 minutes).
Quantification of ataluren loss and ataluren‐O‐1β‐acyl glucuronide formation was carried out with an LC‐MS/MS system, which consisted of two Shimadzu LC‐10ADvp pumps, a SPD10‐AVP UV/Vis detector, a Shimadzu SILHTA autosampler, a Shimadzu DGU‐14A degasser, and a Sciex API 4000 QTRAP mass spectrometer equipped with a Turbo Ionspray ionization source that operated in positive ionization mode. […] Ion transitions monitored were at m/z 285 → m/z 123 for ataluren, m/z 461 → m/z 285 for ataluren acyl glucuronide, and m/z 289 → m/z 127 for ataluren‐D4 (internal standard), respectively.

[2] = Ataluren glucuronidation kinetics, human liver microsomes; conditions: for CLint,u,UGT (scaled) / K m / K m, u / V max: HLM; for CLint,u,UGT (scaled): 40.0 mg protein/g tissue; for K m / K m, u / V max: mean ± SE; for K m / K m, u / V max / fraction unbound at 15 min: n = 3; for fraction unbound at 15 min: human, pooled human liver microsomes incubation mixture, pH 7.5, HLM, mean ± SD, read-out: fu,inc
Method: (§1) Ataluren at 0.5, 2.5, 12.5, 25, 50, 100, 200, and 400 µmol/L, was incubated (n = 3) at 37°C with recombinant human UGT1A9 and with pooled microsomes from human liver, kidney, and intestine (0.025 mg protein/mL, preactivated with alamethicin at 20 µg/mL) in Tris‐HCl buffer (0.1 mol/L, pH 7.5), in the presence of 1 mmol/L EDTA, 5 mmol/L MgCl2, with or without 0.5%, 1%, or 2% BSA. The incubation (100 µL final volume with 0.5% DMSO) was started by adding an equal volume of UDPGA (5 mmol/L) in Tris‐HCl buffer (0.1 mol/L, pH 7.5). After 30 minutes incubation, the incubation mixtures were combined with 0.3 mL of an internal standard solution in acetonitrile with 1% formic acid, followed by membrane plate filtration. The filtrates were used for LC‐MS/MS analysis to quantify the formation of ataluren‐O‐1β‐acyl glucuronide. Detailed LC‐MS/MS conditions are summarized in LC‐MS/MS Analysis section. Ataluren acyl glucuronide formation rate after 30 minutes incubation was calculated using the amount of metabolite formed (pmol) divided by the protein amount in the incubation sample (0.0025 mg) and the incubation time (30 minutes). Ataluren glucuronidation kinetic parameters were determined with and without adjusting BSA binding by nonlinear regression (GraphPad Prism, 5version 5.04, GraphPad Software, Inc.) using Michaelis‐Menten equation which was the best fit compared with other models. The intrinsic clearance was calculated as CLint = Vmax/Km. In order to compare unbound intrinsic clearance by glucuronidation (CLint,u,UGT) in different tissues, CLint,u,UGT was expressed per gram of tissue by correcting the values for the microsomal protein yield, resulting in scaled CLint,u,UGT. Microsomal protein yields of 40.0, 12.8, and 20.6 mg protein/g tissue were used for hepatic, renal, and intestinal data, respectively. ^26
(§2) The high‐throughput membrane ultrafiltration method ^27 was used to determine the fraction unbound in the incubation (n = 3). Incubation mixtures and procedures were essentially the same as the above except that UDPGA (5 mmol/L) was replaced with Tris‐HCl buffer (0.1 mol/L, pH 7.5). After 15 minutes incubation, aliquot was transferred to a Millipore Multiscreen Ultracel‐10 filter plate (10 kDa molecular mass cut off; EMD Millipore). The plate was centrifuged at 37°C and 3710 g. After 30 minutes centrifugation, aliquots of ultrafiltrates and incubation mixtures prior to ultrafiltration were quenched with an internal standard solution in acetonitrile, followed by membrane plate filtration. The filtrates were used for LC‐MS/MS analysis to quantify the concentration of ataluren. The same LC‐MS/MS conditions described above are summarized in LC‐MS/MS Analysis section. The free fraction = Cu/Cm, where Cu is the concentration of ataluren in the ultrafiltrate and Cm is the concentration of ataluren in the incubation system before centrifugation. Unbound Km (Km, u) was recalculated by applying Michaelis‐Menten equation using free ataluren concentrations after correcting BSA binding at each ataluren and BSA concentration level.
(§3) Quantification of ataluren‐O‐1β‐acyl glucuronide formation was conducted on an Accela pump and a PAL autosampler equipped with a TSQ Quantum Ultra mass spectrometer (Thermo Fisher Scientific). A Waters Acquity BEH column (C18, 1.7 µm, 50 × 2.1 mm; Waters Cooperation) was used and maintained at 50°C. The mobile phases were 0.1% formic acid in water (A) and acetonitrile (B). The flow rate was 0.6 mL/min and gradient program was as follows: linear gradient from 0% B to 95% B in 0.5 minutes and hold isocratic at 95% B for 1 minute; linear gradient from 95% B to 0% B in 0.1 minutes and hold isocratic at 0% B for 0.4 minutes. TSQ Quantum Ultra mass spectrometer was equipped with a heated electrospray ionization source operated in negative‐ion mode with a vaporizer temperature of 350°C, capillary temperature of 380°C, and spray voltage of 3 kV. […]

[3] = test system: UGT (glucuronidation); test: as above; conditions: human, pooled human liver microsomes, pH 7.5, HLM, read-out: CLint,u,UGT
Method: as §1, §2, §3

For `O=C(O)c1cccc(-c2noc(-c3ccccc3F)n2)c1` [ataluren, Ataluren], which ataluren loss [1] is on record?
The ataluren loss was 94.3%.

What about the “CLint,u,UGT (scaled)” value ([2]; 0% BSA) of the same compound?
Its value is 1.61 mL/min/g of tissue.

And the K m ([2]; 0% BSA)?
The K m was 29.9 ± 4.49 µM.

And the “K m, u” value ([2]; 0% BSA)?
Its value is 29.9 ± 4.49 µM.

What about the V max ([2]; 0% BSA) of the same compound?
Its V max is 1204 ± 49.0 pmol/min/mg.

And the “CLint,u,UGT (scaled)” value ([2]; 0.5% BSA)?
The value was 13.0 mL/min/g of tissue.

What about the K m ([2]; 0.5% BSA) of the same compound?
Its K m is 54.3 ± 9.42 µM.

What about the “K m, u” value ([2]; 0.5% BSA) of the same compound?
The value was 4.50 ± 0.748 µM.

And the V max ([2]; 0.5% BSA)?
The V max was 1465 ± 68.2 pmol/min/mg.

And the “CLint,u,UGT (scaled)” value ([2]; 1% BSA)?
Its value is 16.9 mL/min/g of tissue.

And the K m ([2]; 1% BSA)?
Its K m is 67.9 ± 9.19 µM.

What about the “K m, u” value ([2]; 1% BSA) of the same compound?
Its value is 3.00 ± 0.415 µM.

What about the V max ([2]; 1% BSA) of the same compound?
The V max was 1264 ± 53.5 pmol/min/mg.

What about the “CLint,u,UGT (scaled)” value ([2]; 2% BSA) of the same compound?
The value was 12.5 mL/min/g of tissue.

What about the K m ([2]; 2% BSA) of the same compound?
Its K m is 108 ± 10.7 µM.

What about the “K m, u” value ([2]; 2% BSA) of the same compound?
Its value is 2.83 ± 0.315 µM.

And the V max ([2]; 2% BSA)?
Its V max is 886 ± 34.7 pmol/min/mg.

And the “maximal effect of BSA on CLint,u (increase)” value ([2]; human liver microsomes, with vs without BSA)?
Its value is ~10 fold.

What about the fraction unbound at 15 min ([2]; 0% BSA) of the same compound?
Its fraction unbound at 15 min is 1 ± 0.12.

And the fraction unbound at 15 min ([2]; 0.5% BSA)?
Its fraction unbound at 15 min is 0.093 ± 0.006.

And the fraction unbound at 15 min ([2]; 1% BSA)?
The fraction unbound at 15 min was 0.05 ± 0.007.

What about the fraction unbound at 15 min ([2]; 2% BSA) of the same compound?
The fraction unbound at 15 min was 0.03 ± 0.005.

What about the microsomal CLint ([3]; 0% BSA) of the same compound?
Its microsomal CLint is 40.3 µL/min/mg.

What about the microsomal CLint ([3]; 0.5% BSA) of the same compound?
Its microsomal CLint is 326 µL/min/mg.

And the microsomal CLint ([3]; 1% BSA)?
Its microsomal CLint is 421 µL/min/mg.

What about the microsomal CLint ([3]; 2% BSA) of the same compound?
Its microsomal CLint is 313 µL/min/mg.
